Legend:
[1] = test system: human breast cancer cell HCC1806; assay: Proliferation of HCC1806 cells, MTT assay; type: cell-based; settings: HCC1806, 72 h, 3 days treatment, read-out: IC50 (inhibition of proliferation of HCC1806)
Procedure: Newly revived HCC1806 cells (purchased from Guangzhou Genio) were cultured and passaged for at least three generations before use. Cells were used at 90% confluency for experiments. Cells were digested with trypsinase and centrifuged at 800 rpm for 5 minutes. The cell pellets were resuspended in fresh RPMI1640 medium and cells were counted. Cells were seeded on 96-well cell culture plates at 2000 cells/well and incubated overnight at 37° C., 5% CO2. The stock solutions of the test substances (including the test compounds and the reference compound) were serially diluted to 8 concentrations with DMSO at a ratio of 1:3. Five μL of each of the serially diluted solutions were added to 120 μL of medium (diluted by 25 times) and mixed by shaking. […] The cell culture plates were returned to incubator at 37° C., 5% CO2 for 3 days. At the end of treatment the cell viability was determined by MTT colorimetric assay. Cell culture medium in each well was replaced by 100 μL/well of serum-free fresh medium containing MTT (0.5 mg/mL), and the culture was continued for additional 4 hours.
(§1) Data was analyzed by GraphPad Prism 6.0. The inhibitory effects of compounds on cell proliferation were plotted based on cell viability vs. the logarithm of compound concentration. Cell viability %=(ODcompound−ODbackground)/(ODDMSO−ODbackground)×100.

CHK1 kinase = target: T1, CHK1 kinase (Homo sapiens, UniProt O14757); assay: CHK1 kinase inhibition, ADP-Glo kinase assay; type: biochemical; settings: ATP 10 μM, CHK1 1 ng/well; for inhibition at 0.01 µM: compound concentration 10 nM, read-out: Inh % (inhibitory effect on CHK1 kinase activity); for IC50: read-out: IC50 (inhibitory effect on CHK1 kinase activity)
T1 construct: purchased Promega V1941
T1 sequence (O14757 1-476): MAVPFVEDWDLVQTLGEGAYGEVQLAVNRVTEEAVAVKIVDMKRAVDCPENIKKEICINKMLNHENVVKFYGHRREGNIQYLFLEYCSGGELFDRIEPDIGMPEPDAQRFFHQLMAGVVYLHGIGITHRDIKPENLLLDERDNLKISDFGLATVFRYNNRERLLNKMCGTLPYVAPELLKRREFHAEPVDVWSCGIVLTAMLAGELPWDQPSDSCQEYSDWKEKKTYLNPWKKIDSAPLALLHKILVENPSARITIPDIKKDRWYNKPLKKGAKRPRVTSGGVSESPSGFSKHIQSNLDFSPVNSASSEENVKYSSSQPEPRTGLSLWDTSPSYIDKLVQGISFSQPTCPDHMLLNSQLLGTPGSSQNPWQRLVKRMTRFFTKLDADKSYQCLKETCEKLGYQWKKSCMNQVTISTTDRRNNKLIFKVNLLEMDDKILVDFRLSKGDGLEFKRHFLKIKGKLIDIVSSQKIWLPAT
Procedure: 2 μL of kinase CHK1 (#V1941, Promega), 1 μL of compound diluted with buffer, and 2 μL of ATP substrate was successively added to a 384-well plate (final concentration of CHK1 was 1 ng/well, ATP was 10 μM). The positive control wells contained CHK1, ATP and DMSO whereas the negative control wells contained ATP, DMSO without enzyme. The mixtures were centrifuged at 1000 rpm for 1 minute and kept in darkness at room temperature for 1 hour to react. Then, 5 μL of ADP-Glo reagent was added to each well and incubated at room temperature for 40 minutes. At the end of incubation, 10 μL of kinase detection reagent was added to each well, and the relative chemiluminescence values (RLU) were measured on Varioskan® Flash (Thermo). The following calculation was performed: Inhibition rate %=(RLU of positive control−RLU of compound)/(RLU of positive control−RLU of negative control)×100. Data were analyzed using GraphPad Prism6.0 and fitted using the curve equation: Y=Bottom+(Top-Bottom)/(1+10^((Log IC50−X)*HillSlope)), and IC50 values were calculated.

[2] = test system: human colon cancer cell LoVo; assay: Proliferation of LoVo cells, MTT assay; type: cell-based; settings: 96 h, 4 days treatment, read-out: IC50 (inhibition of proliferation of LoVo)
Procedure: Newly revived LoVo cells (purchased from Shanghai Cell Institute) were cultured and passaged for at least three generations before use. Cells were used at 90% confluence for experiment. Cells were digested with trypsinase and centrifuged at 800 rpm for 5 minutes and the supernatant was discarded. The cell pellets were resuspended in fresh RPMI1640 medium and counted. Cells were seeded on 96-well cell culture plates at 5000 cells/well and incubated overnight at 37° C., 5% CO2. The stock solutions of the test substances (including the test compounds and the reference compound) were serially diluted to 8 concentrations with DMSO at a ratio of 1:3. 5 μL of each series diluted solutions was added to 120 μL of medium (diluted by 25 times) and mixed by shaking. […] The cell culture plates were returned to incubator at 37° C. and 5% CO2 for 4 days. At the end of treatment, the cell viability was determined by MTT colorimetric assay. Cell culture medium in each well was replaced by 100 μL/well of serum-free DMEM medium containing MTT (0.5 mg/mL), and the culture was continued for additional 4 hours. Medium was then discarded and 100 μL/well of DMSO was added.
as §1

Structure (SMILES)	IC50 [1]	inhibition at 0.01 µM (CHK1 kinase)	IC50 [2]	IC50 (CHK1 kinase)
COc1cnc(Nc2cc(-c3c(OC)cccc3OC[C@H]3CCCNC3)[nH]n2)cn1 [Example 26, (S)-5-methoxy-N-(5-(2-methoxy-6-(piperidin-3-ylmethoxy)phenyl)-1H-pyrazol-3-yl)pyrazin-2-amine]	118 nM	93%	103 nM	
COc1cccc(OC[C@@H]2CNCCS2)c1-c1cc(Nc2cnc(C#N)cn2)n[nH]1 [Example 76-A, (S)-5-((5-(2-methoxy-6-(thiomorpholin-2-ylmethoxy)phenyl)-1H-pyrazol-3-yl)amino)pyrazine-2-carbonitrile]	1.4 nM		2.1 nM	0.79 nM
COc1cc(C(F)(F)F)cc(OC[C@H]2CCCNC2)c1-c1cc(Nc2cnc(C#N)cn2)n[nH]1 [Example 45, (S)-5-((5-(2-methoxy-6-(piperidin-3-ylmethoxy)-4-(trifluoromethyl)phenyl)-1H-pyrazol-3-yl)amino)pyrazine-2-carbonitrile]	8.8 nM		9.5 nM	1.57 nM
COc1cccc(OC[C@H]2CCCNC2)c1-c1cc(Nc2ccc(C#N)nn2)n[nH]1 [Example 25, (S)-6-((5-(2-methoxy-6-(piperidin-3-ylmethoxy)phenyl)-1H-pyrazol-3-yl)amino)pyridazine-3-carbonitrile]	113 nM	91%	104 nM	
COc1cc(F)cc(OC[C@H]2CCCN2)c1-c1cc(Nc2cnc(C#N)cn2)n[nH]1 [Example 66, (R)-5-((5-(4-fluoro-2-methoxy-6-(pyrrolidin-2-ylmethoxy)phenyl)-1H-pyrazol-3-yl)amino)pyrazine-2-carbonitrile]	26.5 nM		14.3 nM	1.22 nM
N#Cc1cnc(Nc2cc(-c3c(F)cccc3OC[C@H]3CCCNC3)[nH]n2)cn1 [Example 46, (S)-5-((5-(2-fluoro-6-(piperidin-3-ylmethoxy)phenyl)-1H-pyrazol-3-yl)amino)pyrazine-2-carbonitrile]	14.7 nM		13.3 nM	0.59 nM
COc1c(C)ccc(OC[C@H]2CCCNC2)c1-c1cc(Nc2cnc(C#N)cn2)n[nH]1 [Example 42, (S)-5-((5-(2-methoxy-3-methyl-6-(piperidin-3-ylmethoxy)phenyl)-1H-pyrazol-3-yl)amino)pyrazine-2-carbonitrile]	69.2 nM	85%	66.6 nM	
COc1cccc(OC[C@@H]2CNCCN2)c1-c1cc(Nc2cnc(C#N)cn2)n[nH]1 [Example 10, (S)-5-((5-(2-methoxy-6-(piperazin-2-ylmethoxy)phenyl)-1H-pyrazol-3-yl)amino)pyrazine-2-carbonitrile]	24.8 nM	95%	23 nM	
N#Cc1cnc(Nc2cc(-c3c(OC[C@@H]4CNCCO4)cccc3OC(F)(F)F)[nH]n2)cn1 [Example 20, (S)-5-((5-(2-(morpholin-2-ylmethoxy)-6-(trifluoromethoxy)phenyl)-1H-pyrazol-3-yl)amino)pyrazine-2-carbonitrile]	995 nM	31%	> 1000 nM	
N#Cc1cnc(Nc2cc(-c3c(Cl)cccc3OC[C@H]3CCCNC3)[nH]n2)cn1 [Example 47, (S)-5-((5-(2-chloro-6-(piperidin-3-ylmethoxy)phenyl)-1H-pyrazol-3-yl)amino)pyrazine-2-carbonitrile]	381 nM	40%	533 nM	
COc1cccc(OCC2CNC2)c1-c1cc(Nc2cnc(C#N)cn2)n[nH]1 [Example 31, 5-((5-(2-(azetidin-3-ylmethoxy)-6-methoxyphenyl)-1H-pyrazol-3-yl)amino)pyrazine-2-carbonitrile]	6.4 nM		5.6 nM	0.38 nM
N#Cc1cnc(Nc2cc(-c3c(F)cc(F)cc3OC[C@H]3CCCNC3)[nH]n2)cn1 [Example 56, (S)-5-((5-(2,4-difluoro-6-(piperidin-3-ylmethoxy)phenyl)-1H-pyrazol-3-yl)amino)pyrazine-2-carbonitrile]	27.4 nM		22.3 nM	1.02 nM
COc1cccc(OC[C@H]2CCCN2)c1-c1cc(Nc2cnc(C#N)cn2)n[nH]1 [Example 65, (R)-5-((5-(2-methoxy-6-(pyrrolidin-2-ylmethoxy)phenyl)-1H-pyrazol-3-yl)amino)pyrazine-2-carbonitrile]	11.9 nM		7.3 nM	0.26 nM
COc1cccc(OC[C@@H]2CNCCN2C)c1-c1cc(Nc2cnc(C#N)cn2)n[nH]1 [Example 11, (S)-5-((5-(2-methoxy-6-((1-methylpiperazin-2-yl)methoxy)phenyl)-1H-pyrazol-3-yl)amino)pyrazine-2-carbonitrile]	> 1000 nM	4.9%	> 1000 nM	
COc1cccc(OC[C@H]2CNCCS2)c1-c1cc(Nc2cnc(C#N)cn2)n[nH]1 [Example 76-B, (R)-5-((5-(2-methoxy-6-(thiomorpholin-2-ylmethoxy)phenyl)-1H-pyrazol-3-yl)amino)pyrazine-2-carbonitrile]	18.5 nM		17.8 nM	1.21 nM
N#Cc1cnc(Nc2cc(-c3c(F)cc(Cl)cc3OC[C@H]3CCCNC3)[nH]n2)cn1 [Example 57, (S)-5-((5-(4-chloro-2-fluoro-6-(piperidin-3-ylmethoxy)phenyl)-1H-pyrazol-3-yl)amino)pyrazine-2-carbonitrile]	170 nM	92%	106 nM	
N#Cc1cnc(Nc2cc(-c3c(F)cccc3OCC3CNC3)[nH]n2)cn1 [Example 53, 5-((5-(2-(azetidin-3-ylmethoxy)-6-fluorophenyl)-1H-pyrazol-3-yl)amino)pyrazine-2-carbonitrile]	89.4 nM	95%	72 nM	
COc1cc(C)cc(OC[C@@H]2CNCCO2)c1-c1cc(Nc2cnc(C#N)cn2)n[nH]1 [Example 44, (S)-5-((5-(2-methoxy-4-methyl-6-(morpholin-2-ylmethoxy)phenyl)-1H-pyrazol-3-yl)amino)pyrazine-2-carbonitrile]	13.3 nM		18 nM	0.93 nM
N#Cc1cnc(Nc2cc(-c3c(F)cccc3OC[C@H]3CCNC3)[nH]n2)cn1 [Example 54, (S)-5-((5-(2-fluoro-6-(pyrrolidin-3-ylmethoxy)phenyl)-1H-pyrazol-3-yl)amino)pyrazine-2-carbonitrile]	30.7 nM		16.2 nM	0.86 nM
COc1cc(Cl)cc(OC[C@H]2CCCNC2)c1-c1cc(Nc2cnc(C#N)cn2)n[nH]1 [Example 40, (S)-5-((5-(4-chloro-2-methoxy-6-(piperidin-3-ylmethoxy)phenyl)-1H-pyrazol-3-yl)amino)pyrazine-2-carbonitrile]	5.5 nM		6.6 nM	0.88 nM
